Measured values reported in US20200131196A1 (Mount Tam Therapeutics, Inc., priority 2017, published 2020).

Test system: CaOV3
Experiment: OncoPanel cell proliferation assay, CaOV3
Assay type: cell-based, human
Settings: for GI50: Caov-3, read-out: Cell Count GI50
Method: Cells were grown in RPMI 1640, 10% FBS, 2 mM L-alanyl-L-glutamine, 1 mM Na pyruvate, or a special medium. Cells were seeded into 384-well plates and incubated in a humidified atmosphere of 5% CO2 at 37° C. Compounds were added the day following cell seeding. At the same time, a time zero untreated cell plate was generated. After a 3-day incubation period, cells were fixed and stained to allow fluorescence imaging of nuclei. Compounds (1 mM stock solutions) were serially diluted in half-log steps from the highest test concentration ([…]), and assayed over 10 concentrations with a maximum assay concentration of 0.1% DMSO. Automated fluorescence microscopy was carried out using a Molecular Devices ImageXpress Micro XL high-content imager, and images were collected with a 4× objective. 16-bit TIFF images were acquired and analyzed with MetaXpress 5.1.0.41 software.
Cell proliferation was measured by the fluorescence intensity of an incorporated nuclear dye. The output is referred to as the relative cell count, where the measured nuclear intensity is transformed to percent of control (POC) using the following formula: […]
Cellular response parameters were calculated using nonlinear regression to a sigmoidal single-site dose response model:
EC50 is the test compound concentration at the curve inflection point or half the effective response (parameter C of the fitted curve solution). GI50 is the concentration needed to reduce the observed growth by half (midway between the curve maximum and the time zero value). “Cell Count Activity Area” is an estimate of the integrated area above the curve (Barretina, et al. The Cancer Cell Line Encyclopedia enables predictive modelling of anticancer drug sensitivity. Nature 483: 603-607). […] In rare instances, values <0 or >10 may be observed. […] Curve-fitting, calculations, and report generation was performed using a custom data reduction engine and MathIQ based software (AIM).

Row | SMILES | Cell Count Activity Area | GI50 (Homo sapiens) | EC50 (Homo sapiens, Caov-3, read-out: Cell Count EC50) | IC50 (Homo sapiens, Caov-3, read-out: Cell Count IC50)
1 | CN[C@@H]1C[C@H]2O[C@@](C)([C@@H]1OC)n1c3ccccc3c3c4c(c5c6ccccc6n2c5c31)C(=O)NC4 [Staurosporine, reference compound] | 5.31 | 0.273 nM |  | 
2 | CO[C@H]1C[C@@H]2CC[C@@H](C)[C@@](O)(O2)C(=O)C(=O)N2CCCC[C@H]2C(=O)O[C@H]([C@H](C)C[C@@H]2CC[C@@H](O)[C@H](OC)C2)CC(=O)[C@H](C)/C=C(\C)[C@@H](O)[C@@H](OC)C(=O)[C@H](C)C[C@H](C)/C=C/C=C/C=C/1C [Rapamycin, reference compound] | 2.40 | > 1000 nM | > 1000 nM | > 1000 nM
